Data set [1] can be described thus: Solubility of peptide compounds in buffer formulations (Table 5). It is filed as physicochemical. To be noted: target 1 mg/ml. On the procedure:
Prior to the solubility measurement of a peptide batch, its purity was determined through UHPLC/MS method A.
For solubility testing the target concentration was 1 mg pure compound/ml. Therefore, solutions from solid samples were prepared in a buffer system at a concentration of 1 mg/mL compound. The solid samples were obtained by drying down aliquots of a freshly prepared dimethyl sulfoxide stock solution using a THERMO SPEEDVAC vacuum centrifuge. The dry down time was 3 hours.
The following buffer systems were applied: • Solubility buffer system A) 50 mM HCl pH 1.2 • Solubility buffer system B) 50 mM phosphate buffer pH 6.5 • Solubility buffer system C) 50 mM phosphate buffer pH 7.4 • UHPLC-UV was performed using analytical method A after 2 hours of gentle agitation from the filtered (0.45 μm filter plates) solutions, which were obtained by 10 mins of centrifugation forced filtration at 1500 RCF (relative centrifugal acceleration).
The solubility was determined by the comparison of the UV peak area of 2 μL-injections of a buffered sample diluted 1:10 with a standard curve of a dimethyl sulfoxide reference sample of known concentration. The different extinction coefficients were taken into account for the calculation.

The nature of data set [2]: Chemical stability (relative purity loss) of peptide compounds in buffer formulations (Table 6). Format: physicochemical. To be noted: 2° C. and 37° C. As for the experimental part:
Purity of a peptide batch was determined through UHPLC/MS method A prior to chemical stability measurement.
For stability assessment, the target concentration was 0.5 mg pure compound/ml. Therefore, solutions from solid samples were prepared in a buffer system at a concentration of 0.5 mg/mL compound. The solid samples were obtained by drying down aliquots of a freshly prepared acetonitrile stock solution using a THERMO SPEEDVAC vacuum centrifuge. The dry down time was 3 hours.
The following buffer systems were applied: • Solubility buffer system A): 50 mM HCl pH 1.2+Acetonitrile (3:1). • Solubility buffer system B): 50 mM phosphate buffer pH 6.5+Acetonitrile (3:1). • Solubility buffer system C): 50 mM phosphate buffer pH 7.4+Acetonitrile (3:1). • Prepared solutions were stored for 24 hours at 2° C. and 37° C.
After this time course, the samples were centrifuged for 15 min at 2500 RCF to create a 1:5 dilution of the supernatant. Then 2 μl of the dilution were analyzed with UHPLC-UV applying method A.
The chemical stability was rated through the relative loss of purity calculated by the equation: […]

The subject of data set [3] is IL-23 induced STAT3 signaling (IL-23 receptor) in HEK-Blue IL-23 cells. As to the kind of experiment: Inhibition of IL-23 induced STAT3 signaling in HEK-Blue IL-23 cells, SEAP reporter (Table 9). It is filed as cell-based. To be noted: human IL23 0.25 ng/ml, overnight, read-out: Inhibition of IL-23 induced pSTAT3 (IC50 nM). From the text:
HEK-Blue™ IL-23 cells (INVIVOGEN) are designed for the detection of bioactive human (hIL-23) and murine IL-23 (mIL-23) by monitoring the activation of the STAT3 pathway. Binding of IL-23 to its receptor on the surface of HEK-Blue™ IL-23 cells triggers a signaling cascade leading to the activation of STAT3 and the subsequent production of secreted embryonic alkaline phosphatase (SEAP). This can be readily assessed using QUANTI-Blue™ Solution, a SEAP detection reagent.
HEK-Blue™ IL-23 cells were cultured as described by INVIVOGEN.
On the first day of assay 10 μL of the HEK-BLUE IL23 cell suspension (final concentration: 10,000 cells/well) and 10 μl of serially diluted peptides solutions were dispensed into a 384-well assay plate. After pre-incubation of the reaction mixtures at 37° C./5% CO2/95% humidity for 60 minutes, 10 μl of the humanIL23 cytokine (final concentration: 0.25 ng/ml) was added to each well for the STAT3 signaling activation. The plate was incubated overnight at 37° C./5% CO2/95% humidity.
On the second day 20 μl per well of QUANTI-BLUE detection solution (prepared according to the manufacture instruction) was dispensed into a new 384-well plate and followed by the transfer of 5 μl supernatant of the overnight incubated cell/sample mixtures. After incubation of 45 min at room temperature signals were measured with PHERASTAR (BMG) at OD 620-655 nm.
Dose response data were fitted with XLfit.

[4] abbreviates: Buffer pH 1.1 (head; method: 50 mM HCl pH 1.2), 2 h agitation, read-out: Solubility, Buffer pH 1.1.
Where [5] appears, read: aqueous buffer, 50 mM phosphate buffer pH 6.5, 2 h agitation, read-out: Solubility, Buffer pH 6.5.
[6] abbreviates: aqueous buffer, 50 mM phosphate buffer pH 7.4, 2 h agitation, read-out: Solubility, Buffer pH 7.4.

Structures are written as SMILES. ≈ marks a conversion by molar mass, not a printed value. Like-named read-outs stand apart in the source and are kept apart here. Numbered stars: 1 amine (or outer) side, 2 acyl side, 3 side chain; on linkers, the order of the positions; unused ones are H or OH. Bridge positions count the residues as written; N and C are the ends. Square brackets hold non-standard residues; d marks the D form. Peptide text beside a SMILES is read from it. * marks the point of attachment. Lys(Me,(CH2)4NMe(CH2)5CO) = CN(CCCCCC(=O)[*:3])CCCCN(C)CCCC[C@H](N[*:1])C(=O)[*:2]; Lys(Me,(CH2)4NMe(CH2)4CO) = CN(CCCCC(=O)[*:3])CCCCN(C)CCCC[C@H](N[*:1])C(=O)[*:2]; Trp(7-Me) = Cc1cccc2c(C[C@H](N)C(=O)O)c[nH]c12; Trp(1-Me) = Cn1cc(C[C@H](N)C(=O)O)c2ccccc21; NH(2-(3-pyridyl)ethyl) = c1cncc(CCN*)c1; αMeLys(Me2) = CN(C)CCCC[C@](C)(N)C(=O)O; 2Nal = N[C@@H](Cc1ccc2ccccc2c1)C(=O)O; 3Pal = N[C@@H](Cc1cccnc1)C(=O)O; Thp = NC1(C(=O)O)CCOCC1; Me2NCH2CH2 = CN(C)CC*; Aib = CC(C)(N)C(=O)O; Sar = CNCC(=O)O Where only a bound is given, the exact number is not on record here.

Consider `CC(=O)NCCCC[C@@H]1NC(=O)[C@H](Cc2c[nH]c3c(C)cccc23)NC(=O)CCCCN(C)CCCCN(C)CCCC[C@@H](C(=O)N[C@@H](CO)C(=O)N[C@@H](Cc2cccnc2)C(=O)N(C)CC(N)=O)NC(=O)C(C)(C)NC(=O)[C@H](Cc2ccc3ccccc3c2)NC(=O)[C@H](Cc2ccc(OCCN(C)C)cc2)NC(=O)C2(CCOCC2)NC1=O` [compound 39] ([Trp(7-Me)]K(Ac)[Thp]Y(Me2NCH2CH2)[2Nal][Aib][Lys(Me,(CH2)4NMe(CH2)4CO)]S[3Pal][Sar]-NH2; lactam N-7), for which the solubility (in general, the dissolved amount per volume that the medium holds) at 2 h in data set [1] (setting [4]) was no less than 1000 µg/mL; in data set [1] (setting [5]), no less than 890 µg/mL; in data set [1] (setting [6]), 850 µg/mL (≈ 516 µM). For the same compound, the degraded at 24 h came to 0% in data set [2] (50 mM phosphate buffer pH 6.5 + acetonitrile (3:1), read-out: Chemical stability (relative purity loss), Buffer pH 6.5); 0% in data set [2] (50 mM phosphate buffer pH 7.4 + acetonitrile (3:1), read-out: Chemical stability (relative purity loss), Buffer pH 7.4); 3.7% in data set [2] (50 mm hcl + acetonitrile, Buffer pH 1.1 (head; method: 50 mM HCl pH 1.2 + acetonitrile 3:1), read-out: Chemical stability (relative purity loss), Buffer pH 1.1). Besides, in data set [3], the IC50 (in general, the midpoint of a concentration-inhibition curve) was found to be 1.78 nM.
Turning to `CC(=O)NCCCC[C@@H]1NC(=O)[C@H](Cc2c[nH]c3c(C)cccc23)NC(=O)CCCCN(C)CCCCN(C)CCCC[C@@H](C(=O)N[C@@H](CO)C(=O)N[C@@H](Cc2cccnc2)C(=O)N(C)CC(N)=O)NC(=O)[C@](C)(CCCCN(C)C)NC(=O)[C@H](Cc2ccc3ccccc3c2)NC(=O)[C@H](Cc2ccc(OCCN(C)C)cc2)NC(=O)C2(CCOCC2)NC1=O` [compound 44] ([Trp(7-Me)]K(Ac)[Thp]Y(Me2NCH2CH2)[2Nal][αMeLys(Me2)][Lys(Me,(CH2)4NMe(CH2)4CO)]S[3Pal][Sar]-NH2; lactam N-7), the solubility at 2 h was no less than 1360 µg/mL in data set [1] (setting [4]), no less than 1130 µg/mL in data set [1] (setting [5]) and no less than 1120 µg/mL in data set [1] (setting [6]). For the same compound, the IC50 in data set [3] turned out to be 1.19 nM.
Taken in the same sequence, the figures for `CC(=O)NCCCC[C@@H]1NC(=O)[C@H](Cc2c[nH]c3c(C)cccc23)NC(=O)CCCCN(C)CCCCN(C)CCCC[C@@H](C(=O)NCC(=O)NCCc2cccnc2)NC(=O)C2(CCOCC2)NC(=O)[C@H](Cc2ccc3ccccc3c2)NC(=O)[C@H](Cc2ccc(OCCN(C)C)cc2)NC(=O)C2(CCOCC2)NC1=O` [compound 48] ([Trp(7-Me)]K(Ac)[Thp]Y(Me2NCH2CH2)[2Nal][Thp][Lys(Me,(CH2)4NMe(CH2)4CO)]G-{NH(2-(3-pyridyl)ethyl)}; lactam N-7) were no less than 980 µg/mL, 850 µg/mL (≈ 550 µM), 810 µg/mL (≈ 524 µM) and 10.4 nM.
Taken in the same sequence, the figures for `CC(=O)NCCCC[C@@H]1NC(=O)[C@H](Cc2cn(C)c3ccccc23)NC(=O)CCCCCN(C)CCCCN(C)CCCC[C@@H](C(=O)NCC(=O)NCCc2cccnc2)NC(=O)C(C)(C)NC(=O)[C@H](Cc2ccc3ccccc3c2)NC(=O)[C@H](Cc2ccc(OCCN(C)C)cc2)NC(=O)C2(CCOCC2)NC1=O` [compound 23] ([Trp(1-Me)]K(Ac)[Thp]Y(Me2NCH2CH2)[2Nal][Aib][Lys(Me,(CH2)4NMe(CH2)5CO)]G-{NH(2-(3-pyridyl)ethyl)}; lactam N-7) were no less than 970 µg/mL, no less than 890 µg/mL, no less than 880 µg/mL and 39.2 nM.
As for `CN(C)CCCC[C@]1(C)NC(=O)[C@H](Cc2ccc3ccccc3c2)NC(=O)[C@H](Cc2ccc(OCCN(C)C)cc2)NC(=O)C2(CCOCC2)NC(=O)[C@H](CCC(N)=O)NC(=O)[C@H](Cc2cn(C)c3ccccc23)NC(=O)CCCCN(C)CCCCN(C)CCCC[C@@H](C(=O)N[C@@H](CO)C(=O)N[C@@H](Cc2cccnc2)C(=O)N(C)CC(N)=O)NC1=O` [compound 45] ([Trp(1-Me)]Q[Thp]Y(Me2NCH2CH2)[2Nal][αMeLys(Me2)][Lys(Me,(CH2)4NMe(CH2)4CO)]S[3Pal][Sar]-NH2; lactam N-7), the results for the solubility at 2 h in data set [1] (setting [4]), in data set [1] (setting [5]) and in data set [1] (setting [6]) were no less than 1060 µg/mL, no less than 1030 µg/mL and no less than 1030 µg/mL, respectively. For the same compound, in data set [3], the IC50 turned out to be 7.83 nM.
With `CN(C)CCOc1ccc(C[C@@H]2NC(=O)C3(CCOCC3)NC(=O)[C@H](CCC(N)=O)NC(=O)[C@H](Cc3cn(C)c4ccccc34)NC(=O)CCCCCN(C)CCCCN(C)CCCC[C@@H](C(=O)NCC(=O)NCCc3cccnc3)NC(=O)C(C)(C)NC(=O)[C@H](Cc3ccc4ccccc4c3)NC2=O)cc1` [compound 22] ([Trp(1-Me)]Q[Thp]Y(Me2NCH2CH2)[2Nal][Aib][Lys(Me,(CH2)4NMe(CH2)5CO)]G-{NH(2-(3-pyridyl)ethyl)}; lactam N-7), the solubility at 2 h in data set [1] (setting [4]) is no less than 1020 µg/mL; in data set [1] (setting [5]), no less than 920 µg/mL; in data set [1] (setting [6]), 330 µg/mL (≈ 224 µM). The IC50 in data set [3] worked out at 24.8 nM.
